Tests used:
[1] = tested on: RPS6KA3/RSK2; experiment: DiscoverX scanMAX competition binding assay; design: species or system human
Text: (§1) Based on its narrow profile when tested in the combined Nanosyn and TSA panels, GW296115 was included in the recently released Kinase Chemogenomic Set (KCGS)[15]. All of the data presented in the Introduction section was collected prior to the inclusion of GW296115 in KCGS and everything that follows has been subsequently generated. Since its inclusion in PKIS and more recently KCGS, we have carried out a broader round of screening at DiscoverX. This profiling data has not been previously released and is reported here for the first time. GW296115 was profiled against 403 wild type human kinases at 1 μM using the DiscoverX scanMAX screening platform, which employs an active site-directed competition binding assay to quantitatively measure interactions between test compounds and kinases, [16]. GW296115 inhibited 25 kinases > 90% at 1 μM, resulting in a selectivity index (S10) of 0.062 at 1 μM (Table S2, Fig. 1C)[17].
(§2) The scanMAX assays were performed at Eurofins DiscoverX Corporation as previously described.

[2] = target: T1, AURKB (Homo sapiens, UniProt Q96GD4); experiment: Eurofins kinase enzymatic radiometric assay; format: biochemical; design: purchased Eurofins; details: Km of ATP, 9-point curve in duplicate
T1 sequence (Q96GD4 whole entry): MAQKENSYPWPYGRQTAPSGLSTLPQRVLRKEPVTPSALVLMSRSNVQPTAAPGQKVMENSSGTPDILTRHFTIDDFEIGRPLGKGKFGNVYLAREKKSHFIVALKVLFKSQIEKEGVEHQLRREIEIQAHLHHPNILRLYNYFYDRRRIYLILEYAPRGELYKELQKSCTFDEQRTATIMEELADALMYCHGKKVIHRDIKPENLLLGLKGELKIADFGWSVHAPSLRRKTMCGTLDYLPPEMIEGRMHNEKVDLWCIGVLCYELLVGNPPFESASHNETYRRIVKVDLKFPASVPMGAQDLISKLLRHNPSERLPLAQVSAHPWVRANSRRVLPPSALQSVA
Text: (§3) Due to our interest in the activity of GW296115 on several understudied IDG kinases, we collected full dose–response curves for all wild type kinases inhibited ≥ 75% in the DiscoverX panel that were offered by Eurofins. Having data in orthogonal formats is a powerful way to confirm inhibitory activity and adds rigor to our results. Eurofins has kinase enzymatic radiometric assays for 35 of the kinases on this list (Table S2) and a kinase enzymatic LANCE assay for one additional kinase (MAP2K5/MEK5).
(§4) Eurofins kinase enzymatic radiometric assays were carried out at the Km of ATP in dose–response (9-pt curve in duplicate) for each kinase for which it was offered.

[3] = target: T2, BRSK1 (Homo sapiens, UniProt Q8TDC3); experiment: Eurofins kinase enzymatic radiometric assay; format: biochemical; design: purchased Eurofins; details: Km of ATP, 9-point curve in duplicate
T2 sequence (Q8TDC3 1-778): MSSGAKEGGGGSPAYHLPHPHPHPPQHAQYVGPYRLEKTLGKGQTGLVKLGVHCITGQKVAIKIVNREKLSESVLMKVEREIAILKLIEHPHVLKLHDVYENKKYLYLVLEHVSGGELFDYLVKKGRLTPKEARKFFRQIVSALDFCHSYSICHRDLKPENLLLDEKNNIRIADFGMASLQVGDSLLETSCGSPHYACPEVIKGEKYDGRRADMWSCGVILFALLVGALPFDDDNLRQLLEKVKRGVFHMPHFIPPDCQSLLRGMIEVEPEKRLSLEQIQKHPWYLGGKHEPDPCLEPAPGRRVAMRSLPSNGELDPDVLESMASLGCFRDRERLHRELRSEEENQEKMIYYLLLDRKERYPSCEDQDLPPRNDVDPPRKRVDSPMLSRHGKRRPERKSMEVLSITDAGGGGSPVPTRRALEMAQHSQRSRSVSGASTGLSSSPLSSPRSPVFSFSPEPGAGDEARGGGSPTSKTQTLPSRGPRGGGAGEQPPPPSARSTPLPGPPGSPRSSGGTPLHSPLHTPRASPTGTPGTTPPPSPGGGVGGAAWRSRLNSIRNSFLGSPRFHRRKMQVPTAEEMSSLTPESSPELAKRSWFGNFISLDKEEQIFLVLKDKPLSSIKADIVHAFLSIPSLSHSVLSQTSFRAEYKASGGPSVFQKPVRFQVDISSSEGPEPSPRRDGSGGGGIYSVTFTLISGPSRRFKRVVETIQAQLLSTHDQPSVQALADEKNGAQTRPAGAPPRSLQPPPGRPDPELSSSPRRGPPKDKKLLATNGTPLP
Text: as §3, §4

[4] = target: MAP3K9/MLK1 (Homo sapiens, UniProt P80192); experiment: Eurofins kinase enzymatic radiometric assay; format: biochemical; design: purchased Eurofins; details: Km of ATP, 9-point curve in duplicate
Text: as §3, §4

[5] = target: T3, MAP4K4/HGK (Homo sapiens, UniProt O95819); experiment: Eurofins kinase enzymatic radiometric assay; format: biochemical; design: purchased Eurofins; details: Km of ATP, 9-point curve in duplicate
T3 sequence (O95819 whole entry): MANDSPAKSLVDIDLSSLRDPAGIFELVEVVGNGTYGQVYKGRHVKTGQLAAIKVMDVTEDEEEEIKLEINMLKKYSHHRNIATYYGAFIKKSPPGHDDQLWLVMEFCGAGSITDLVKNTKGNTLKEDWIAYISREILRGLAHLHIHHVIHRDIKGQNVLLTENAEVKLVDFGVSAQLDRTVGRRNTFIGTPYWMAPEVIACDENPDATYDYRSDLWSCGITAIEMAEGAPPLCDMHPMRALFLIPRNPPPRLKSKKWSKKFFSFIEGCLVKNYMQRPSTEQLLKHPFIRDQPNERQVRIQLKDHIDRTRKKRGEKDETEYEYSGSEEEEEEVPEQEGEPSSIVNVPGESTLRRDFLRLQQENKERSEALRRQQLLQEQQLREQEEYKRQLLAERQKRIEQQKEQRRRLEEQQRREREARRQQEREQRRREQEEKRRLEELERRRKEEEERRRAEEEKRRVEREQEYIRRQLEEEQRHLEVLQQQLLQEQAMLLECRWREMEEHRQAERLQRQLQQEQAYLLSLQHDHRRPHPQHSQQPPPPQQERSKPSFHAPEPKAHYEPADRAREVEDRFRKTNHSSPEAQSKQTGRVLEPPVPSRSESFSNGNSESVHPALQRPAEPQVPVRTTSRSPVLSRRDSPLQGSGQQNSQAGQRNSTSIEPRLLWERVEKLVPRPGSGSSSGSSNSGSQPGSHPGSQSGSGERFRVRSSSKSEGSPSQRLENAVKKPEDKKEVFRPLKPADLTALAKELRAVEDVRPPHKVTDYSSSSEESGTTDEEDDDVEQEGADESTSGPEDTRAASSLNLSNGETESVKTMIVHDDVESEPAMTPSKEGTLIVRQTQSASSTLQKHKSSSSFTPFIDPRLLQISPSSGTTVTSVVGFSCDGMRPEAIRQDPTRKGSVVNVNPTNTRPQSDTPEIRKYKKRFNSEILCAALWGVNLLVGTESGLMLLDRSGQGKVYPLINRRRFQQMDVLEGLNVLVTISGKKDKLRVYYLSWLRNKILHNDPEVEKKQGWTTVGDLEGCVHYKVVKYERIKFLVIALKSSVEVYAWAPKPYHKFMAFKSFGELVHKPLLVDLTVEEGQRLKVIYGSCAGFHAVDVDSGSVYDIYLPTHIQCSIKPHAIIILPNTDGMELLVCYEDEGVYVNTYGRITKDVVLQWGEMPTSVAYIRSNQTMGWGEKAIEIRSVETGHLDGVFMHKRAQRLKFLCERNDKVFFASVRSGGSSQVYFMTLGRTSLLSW
Text: as §3, §4

[6] = target: PLK4 (Homo sapiens, UniProt O00444); experiment: Eurofins kinase enzymatic radiometric assay; format: biochemical; design: purchased Eurofins; details: Km of ATP, 9-point curve in duplicate
Text: as §3, §4

[7] = target: ROS1 (Homo sapiens, UniProt P08922); experiment: Eurofins kinase enzymatic radiometric assay; format: biochemical; design: purchased Eurofins; details: Km of ATP, 9-point curve in duplicate
Text: as §3, §4

[8] = target: SGK1/SGK (Homo sapiens, UniProt O00141); experiment: Eurofins kinase enzymatic radiometric assay; format: biochemical; design: purchased Eurofins; details: Km of ATP, 9-point curve in duplicate
Text: as §3, §4

[9] = target: STK17A/DRAK1 (Homo sapiens, UniProt Q9UEE5); experiment: Eurofins kinase enzymatic radiometric assay; format: biochemical; design: purchased Eurofins; details: Km of ATP, 9-point curve in duplicate
Text: as §3, §4

[10] = target: PIM2 (Homo sapiens, UniProt Q9P1W9); design: purchased Eurofins; method as in earlier work; details: cited from earlier work
Sequence of PIM2 (Q9P1W9 whole entry): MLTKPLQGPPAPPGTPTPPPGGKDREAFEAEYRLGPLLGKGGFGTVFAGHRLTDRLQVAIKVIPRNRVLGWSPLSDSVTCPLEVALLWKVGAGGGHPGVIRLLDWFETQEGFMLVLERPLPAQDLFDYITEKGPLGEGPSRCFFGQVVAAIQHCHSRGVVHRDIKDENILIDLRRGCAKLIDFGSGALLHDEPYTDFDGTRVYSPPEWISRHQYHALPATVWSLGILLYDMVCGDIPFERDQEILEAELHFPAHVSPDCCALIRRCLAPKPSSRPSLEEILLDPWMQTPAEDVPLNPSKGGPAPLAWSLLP

[11] = target: T1, AURKB; experiment: DiscoverX scanMAX competition binding assay; design: purchased Eurofins DiscoverX (scanMAX) / Eurofins enzymatic assays
Text: as §1, §2

[12] = target: DAPK2 (Homo sapiens, UniProt Q9UIK4); experiment: DiscoverX scanMAX competition binding assay; design: purchased Eurofins DiscoverX (scanMAX) / Eurofins enzymatic assays
Text: as §1, §2

[13] = target: FLT3 (Homo sapiens, UniProt P36888); experiment: DiscoverX scanMAX competition binding assay; design: purchased Eurofins DiscoverX (scanMAX) / Eurofins enzymatic assays
Text: as §1, §2

[14] = target: MAP3K11/MLK3 (Homo sapiens, UniProt Q16584); experiment: DiscoverX scanMAX competition binding assay; design: purchased Eurofins DiscoverX (scanMAX) / Eurofins enzymatic assays
Sequence of MAP3K11/MLK3 (Q16584 whole entry): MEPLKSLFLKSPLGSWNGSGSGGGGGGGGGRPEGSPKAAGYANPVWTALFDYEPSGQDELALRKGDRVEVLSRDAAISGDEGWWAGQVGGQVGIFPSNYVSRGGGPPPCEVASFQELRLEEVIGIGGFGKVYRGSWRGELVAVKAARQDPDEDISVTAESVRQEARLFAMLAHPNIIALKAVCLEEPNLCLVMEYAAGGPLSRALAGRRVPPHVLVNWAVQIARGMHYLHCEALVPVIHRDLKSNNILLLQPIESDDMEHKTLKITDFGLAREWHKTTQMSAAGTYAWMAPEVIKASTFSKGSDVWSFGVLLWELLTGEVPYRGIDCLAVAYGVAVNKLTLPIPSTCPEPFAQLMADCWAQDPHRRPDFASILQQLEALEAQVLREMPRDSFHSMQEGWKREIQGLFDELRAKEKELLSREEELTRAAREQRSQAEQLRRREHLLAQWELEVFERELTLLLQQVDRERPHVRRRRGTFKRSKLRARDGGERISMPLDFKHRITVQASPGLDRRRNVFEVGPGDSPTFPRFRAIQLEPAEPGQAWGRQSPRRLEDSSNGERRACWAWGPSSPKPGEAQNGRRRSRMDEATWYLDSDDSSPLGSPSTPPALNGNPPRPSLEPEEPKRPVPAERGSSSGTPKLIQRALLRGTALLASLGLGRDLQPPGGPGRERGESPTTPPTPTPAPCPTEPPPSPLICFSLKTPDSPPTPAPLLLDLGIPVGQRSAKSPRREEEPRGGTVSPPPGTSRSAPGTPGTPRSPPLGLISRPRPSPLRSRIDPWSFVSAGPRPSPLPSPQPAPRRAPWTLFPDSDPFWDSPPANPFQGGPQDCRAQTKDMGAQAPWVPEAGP
Text: as §1, §2

[15] = target: T3, MAP4K4/HGK; experiment: DiscoverX scanMAX competition binding assay; design: purchased Eurofins DiscoverX (scanMAX) / Eurofins enzymatic assays
Text: as §1, §2

[16] = target: PDGFRA (Homo sapiens, UniProt P16234); experiment: DiscoverX scanMAX competition binding assay; design: purchased Eurofins DiscoverX (scanMAX) / Eurofins enzymatic assays
Sequence of PDGFRA (P16234 24-1089): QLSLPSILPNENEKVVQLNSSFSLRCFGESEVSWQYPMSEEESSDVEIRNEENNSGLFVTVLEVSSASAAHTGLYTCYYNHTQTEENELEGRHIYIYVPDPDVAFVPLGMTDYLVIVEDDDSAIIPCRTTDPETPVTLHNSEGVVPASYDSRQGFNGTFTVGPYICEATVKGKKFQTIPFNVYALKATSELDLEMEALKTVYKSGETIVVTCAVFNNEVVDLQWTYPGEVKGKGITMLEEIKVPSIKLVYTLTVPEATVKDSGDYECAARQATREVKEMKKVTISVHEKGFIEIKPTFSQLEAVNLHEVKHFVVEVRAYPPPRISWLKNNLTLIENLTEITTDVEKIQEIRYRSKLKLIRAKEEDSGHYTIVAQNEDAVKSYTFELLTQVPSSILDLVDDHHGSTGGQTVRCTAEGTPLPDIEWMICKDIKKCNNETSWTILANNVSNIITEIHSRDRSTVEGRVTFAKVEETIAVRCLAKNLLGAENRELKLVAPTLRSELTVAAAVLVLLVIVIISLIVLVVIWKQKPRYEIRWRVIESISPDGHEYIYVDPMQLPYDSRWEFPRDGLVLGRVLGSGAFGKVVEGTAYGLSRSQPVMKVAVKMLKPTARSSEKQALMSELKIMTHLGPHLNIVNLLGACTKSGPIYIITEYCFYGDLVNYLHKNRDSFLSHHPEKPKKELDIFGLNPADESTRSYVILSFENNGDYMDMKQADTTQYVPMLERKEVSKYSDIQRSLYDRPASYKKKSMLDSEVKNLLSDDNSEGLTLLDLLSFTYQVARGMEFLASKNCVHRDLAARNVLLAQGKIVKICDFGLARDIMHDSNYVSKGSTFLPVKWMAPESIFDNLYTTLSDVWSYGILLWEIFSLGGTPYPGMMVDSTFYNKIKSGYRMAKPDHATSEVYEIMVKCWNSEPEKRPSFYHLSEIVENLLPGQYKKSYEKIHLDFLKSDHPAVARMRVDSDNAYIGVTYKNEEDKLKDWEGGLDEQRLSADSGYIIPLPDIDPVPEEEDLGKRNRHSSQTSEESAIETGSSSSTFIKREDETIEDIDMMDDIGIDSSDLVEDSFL
Text: as §1, §2

[17] = target: PDGFRB (Homo sapiens, UniProt P09619); experiment: DiscoverX scanMAX competition binding assay; design: purchased Eurofins DiscoverX (scanMAX) / Eurofins enzymatic assays
Sequence of PDGFRB (P09619 33-1106): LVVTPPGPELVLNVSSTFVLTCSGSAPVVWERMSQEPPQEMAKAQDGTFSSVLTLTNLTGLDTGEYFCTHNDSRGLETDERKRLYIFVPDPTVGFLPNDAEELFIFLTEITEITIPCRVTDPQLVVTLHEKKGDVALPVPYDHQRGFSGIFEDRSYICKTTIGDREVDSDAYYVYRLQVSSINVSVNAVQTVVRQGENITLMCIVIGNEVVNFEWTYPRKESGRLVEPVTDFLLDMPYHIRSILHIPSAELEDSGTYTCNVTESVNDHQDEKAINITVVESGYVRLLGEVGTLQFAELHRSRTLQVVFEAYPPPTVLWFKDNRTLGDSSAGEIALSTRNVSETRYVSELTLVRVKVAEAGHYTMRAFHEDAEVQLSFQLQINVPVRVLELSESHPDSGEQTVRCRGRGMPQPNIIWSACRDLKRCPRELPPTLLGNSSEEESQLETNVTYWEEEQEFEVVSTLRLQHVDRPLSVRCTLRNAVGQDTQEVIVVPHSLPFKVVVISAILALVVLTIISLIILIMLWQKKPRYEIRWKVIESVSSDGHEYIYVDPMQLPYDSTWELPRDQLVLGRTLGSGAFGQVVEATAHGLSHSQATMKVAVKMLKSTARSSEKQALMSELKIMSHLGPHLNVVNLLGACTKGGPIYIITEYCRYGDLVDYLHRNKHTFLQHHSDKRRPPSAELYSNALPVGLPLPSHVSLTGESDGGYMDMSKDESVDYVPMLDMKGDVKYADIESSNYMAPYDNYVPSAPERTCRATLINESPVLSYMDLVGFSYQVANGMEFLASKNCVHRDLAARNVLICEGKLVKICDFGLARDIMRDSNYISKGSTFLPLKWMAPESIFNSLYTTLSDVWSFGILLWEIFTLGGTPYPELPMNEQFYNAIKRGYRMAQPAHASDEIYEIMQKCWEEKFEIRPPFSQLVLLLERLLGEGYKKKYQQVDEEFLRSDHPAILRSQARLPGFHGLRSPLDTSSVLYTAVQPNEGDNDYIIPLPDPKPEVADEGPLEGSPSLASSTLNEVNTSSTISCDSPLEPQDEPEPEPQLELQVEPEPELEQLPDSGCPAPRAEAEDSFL
Text: as §1, §2

[18] = target: PRKG2/PKG2 (Homo sapiens, UniProt Q13237); experiment: DiscoverX scanMAX competition binding assay; design: purchased Eurofins DiscoverX (scanMAX) / Eurofins enzymatic assays
Text: as §1, §2

## COc1ccc2[nH]c3c4[nH]c5ccc(OC)cc5c4c4c(c3c2c1)C(=O)NC4=O [GW296115]
[1]
  DiscoverX % Inhibition at 1 μM: 84%
[2]
  IC50: 94 nM
[3]
  IC50: 21 nM
[4]
  IC50: 26 nM
[5]
  IC50: 29 nM
[6]
  IC50: 17 nM
[7]
  IC50: > 10000 nM
[8]
  IC50: 710 nM
[9]
  IC50: 28 nM
[10]
  TSA ΔTm at 10 μM (°C): 9.8 °C
[11]
  inhibition at 1 µM: 90%
[12]
  inhibition at 1 µM: 96.7%
[13]
  inhibition at 1 µM: 91.5%
[14]
  inhibition at 1 µM: 92.4%
[15]
  inhibition at 1 µM: 91.4%
[16]
  inhibition at 1 µM: 91.4%
[17]
  inhibition at 1 µM: 99.8%
[18]
  inhibition at 1 µM: 98.8%
